Source: patent US4327097A, “Novel penicillins” (Toyama Chemical Co., Ltd., priority 1974, dated 1982)
In brackets after ≈: the same amount, converted by molar mass.

Tests used:
[1] = molecular target: β-lactamase, Escherichia freundii GN 346 (Citrobacter freundii, UniProt Q46041); experiment: Resistant activity against β-lactamase, iodometric assay; format: biochemical; conditions: control Cephalorizine = 100
Experimental: (§1) (4) Resistant activity of each cephalosporin compound against β-lactamase, Proteus vulgaris GN 76 and Escherichia freundii GN 346:
(§2) The resistant activity of each cephalosporin compound against β-lactamase was measured in the manner described below.
(§3) β-lactamase was prepared from Proteus vulgaris GN 76 and Escherichia freundii GN 346. 10 ml of an overnight culture in Heart Infusion broth was diluted with 100 ml of a medium containing 2 g of yeast extract, 10 g of polypeptone, 2 g of glucose, 7 g of disodium hydrogen phosphate, 2 g of potassium dihydrogen phosphate, 1.2 g of ammonium sulfate and 0.4 g of magnesium sulfate, per liter, and incubated with shaking at 37° C. After incubation of 2 hrs, Penicillin G (50 μg/ml) was added as the inducer, and further incubated for 2 hrs. The resulting cells were collected by centrifugation (5,000 r.p.m.×10 min.) and washed two times with 0.1 M phosphate buffer (pH 7.0). Subsequently, the cells were subjected to sonication (20 KHz, 5 min.) and then centrifuged at 15,000 r.p.m. for 60 min. By using the supernatant of enzyme fluid, the stability of each compound against β-lactamase was determined by the iodometric assay method. Each numeral shown in Table 7-2 is a relative activity value calculated by assuming as 100 the activity of the control Cephalorizine.

[2] = molecular target: T1, β-lactamase, Proteus vulgaris GN 76 (Proteus vulgaris, UniProt P52664); experiment: as above; format: biochemical; conditions: control Cephalorizine = 100
T1 construct: By using the supernatant of enzyme fluid; endogenous in cells; host or cells: Proteus vulgaris GN 76 (penicillin G-induced cells, sonicated, 15,000 r.p.m. supernatant)
T1 sequence (P52664 30-300): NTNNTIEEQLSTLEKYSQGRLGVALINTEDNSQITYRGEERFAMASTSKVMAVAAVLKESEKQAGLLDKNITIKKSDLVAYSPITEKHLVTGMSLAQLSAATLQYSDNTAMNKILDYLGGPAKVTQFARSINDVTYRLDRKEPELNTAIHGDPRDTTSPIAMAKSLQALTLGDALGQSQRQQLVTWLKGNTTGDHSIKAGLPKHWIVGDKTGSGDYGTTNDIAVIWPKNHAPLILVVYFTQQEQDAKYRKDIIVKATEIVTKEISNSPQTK
Experimental: as §1, §2, §3

Escherichia coli NIHJ = experiment: MIC, plate method, standard strains; format: cell-based; conditions: Table 4, standard strain; unit assumed
Outline: (§4)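 Heart infusion agar, pH 7.4, plate method. Inoculum: 10^4 cells/plate (10^6 cells/ml). Read-out: MIC.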

[3] = system: Staphylococcus aureus 209p; experiment: MIC, plate method, standard strains; format: cell-based; conditions: Table 4, standard strain; unit assumed
Outline: as §4

Proteus vulgaris 3027 = experiment: MIC, plate method, standard strains; format: cell-based; conditions: Table 4, standard strain; unit assumed
Outline: as §4

[4] = system: Pseudomonas aeruginosa I.F.O.; experiment: MIC, plate method, standard strains; format: cell-based; conditions: Table 4, standard strain; unit assumed
Outline: as §4

Klebsiella pneumoniae [5] = experiment: MIC, plate method, standard strains; format: cell-based; conditions: Table 4, standard strain; unit assumed
Outline: as §4

Proteus mirabilis = experiment: MIC against clinical isolates; format: cell-based; conditions: Table 6-5, clinical isolate; unit assumed
Escherichia coli = experiment: MIC against clinical isolates; format: cell-based; conditions: Table 6-2, clinical isolate; unit assumed
Proteus rettgeri = experiment: MIC against clinical isolates; format: cell-based; conditions: Table 6-5, clinical isolate; unit assumed
Klebsiella pneumoniae [6] = experiment: MIC against clinical isolates; format: cell-based; conditions: Table 6-4, clinical isolate; unit assumed
Pseudomonas aeruginosa = experiment: MIC against clinical isolates; format: cell-based; conditions: unit assumed; for MIC Pseudomonas aeruginosa GN / MIC Pseudomonas aeruginosa GN4 / MIC Pseudomonas aeruginosa GN 82 / MIC Pseudomonas aeruginosa GN 221 / MIC Pseudomonas aeruginosa GN 376 / MIC Pseudomonas aeruginosa GN 1035 / MIC Pseudomonas aeruginosa GN 1091 / MIC Pseudomonas aeruginosa GN 2565: Table 6-3, clinical isolate; for MIC Pseudomonas aeruginosa GN: strain number not given; for MIC Pseudomonas aeruginosa S-1: Table 6-4, clinical isolate
Proteus morganii = experiment: MIC against clinical isolates; format: cell-based; conditions: Table 6-5, clinical isolate; unit assumed
Staphylococcus aureus = experiment: MIC against clinical isolates; format: cell-based; conditions: Table 6-1, clinical isolate; unit assumed
Proteus vulgaris = experiment: MIC against clinical isolates; format: cell-based; conditions: Table 6-5, clinical isolate; unit assumed

Sequence of β-lactamase, Escherichia freundii GN 346 (Q46041 entry or part of it): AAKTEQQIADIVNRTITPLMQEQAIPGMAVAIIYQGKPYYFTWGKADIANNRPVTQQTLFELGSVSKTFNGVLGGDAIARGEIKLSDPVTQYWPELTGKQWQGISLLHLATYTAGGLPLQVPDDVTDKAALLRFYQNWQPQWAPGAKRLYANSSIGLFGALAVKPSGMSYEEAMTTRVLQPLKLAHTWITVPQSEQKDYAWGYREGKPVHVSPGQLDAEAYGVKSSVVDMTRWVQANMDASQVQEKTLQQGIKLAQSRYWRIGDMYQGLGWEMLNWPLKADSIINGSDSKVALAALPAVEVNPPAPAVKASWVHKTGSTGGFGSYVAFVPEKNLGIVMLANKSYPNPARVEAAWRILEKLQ

| Compound | Relative activity (%) against β-lactamase, E. freundii GN 346 [1] [%] | Relative activity (%) against β-lactamase, Pr. vulgaris GN 76 [2] [%] | MIC Escherichia coli NIHJ (Escherichia coli NIHJ) [µg/mL] | MIC Staphylococcus aureus 209p [3] [µg/mL] | MIC Proteus vulgaris 3027 (Proteus vulgaris 3027) [µg/mL] | MIC Pseudomonas aeruginosa I.F.O. [4] [µg/mL] | MIC Klebsiella pneumoniae (Klebsiella pneumoniae [5]) [µg/mL] | MIC Proteus mirabilis (Proteus mirabilis) [µg/mL] | MIC Escherichia coli GN 3435 (Escherichia coli) [µg/mL] | MIC Escherichia coli GN 3452 (Escherichia coli) [µg/mL] | MIC Escherichia coli GN 3465 (Escherichia coli) [µg/mL] | MIC Escherichia coli K-2 (Escherichia coli) [µg/mL] | MIC Escherichia coli K-4 (Escherichia coli) [µg/mL] | MIC Proteus rettgeri (Proteus rettgeri) [µg/mL] | MIC Klebsiella pneumoniae GN 917 (Klebsiella pneumoniae [6]) [µg/mL] | MIC Klebsiella pneumoniae GN 4081 (Klebsiella pneumoniae [6]) [µg/mL] | MIC Pseudomonas aeruginosa GN (Pseudomonas aeruginosa) [µg/mL] | MIC Pseudomonas aeruginosa GN4 (Pseudomonas aeruginosa) [µg/mL] | MIC Pseudomonas aeruginosa GN 82 (Pseudomonas aeruginosa) [µg/mL] | MIC Pseudomonas aeruginosa GN 221 (Pseudomonas aeruginosa) [µg/mL] | further results |
| --- | --- | --- | --- | --- | --- | --- | --- | --- | --- | --- | --- | --- | --- | --- | --- | --- | --- | --- | --- | --- | --- |
| CCCCN1CCN(C(=O)NC(C(=O)NC2C(=O)N3C(C(=O)O)=C(CSc4nnnn4C)CSC23)c2ccccc2)C(=O)C1=O (single isomer, unassigned) [Compound No. 73] | 0.1 | 4 | < 0.1 | 1.57 (≈ 2.39 µM) | 1.57 (≈ 2.39 µM) | 25 (≈ 38 µM) | 0.2 (≈ 0.304 µM) | 0.39 (≈ 0.593 µM) | 0.78 (≈ 1.19 µM) | 0.78 (≈ 1.19 µM) | 1.56 (≈ 2.37 µM) | 1.56 (≈ 2.37 µM) | 0.78 (≈ 1.19 µM) | 3.13 (≈ 4.76 µM) | 0.78 (≈ 1.19 µM) | 1.56 (≈ 2.37 µM) | 12.5 (≈ 19 µM) | 12.5 (≈ 19 µM) | 12.5 (≈ 19 µM) | 12.5 (≈ 19 µM) | MIC Pseudomonas aeruginosa GN 376 (Pseudomonas aeruginosa): 12.5 µg/mL (≈ 19 µM); MIC Pseudomonas aeruginosa GN 1035 (Pseudomonas aeruginosa): 50 µg/mL (≈ 76 µM); MIC Pseudomonas aeruginosa GN 1091 (Pseudomonas aeruginosa): 12.5 µg/mL (≈ 19 µM); MIC Pseudomonas aeruginosa GN 2565 (Pseudomonas aeruginosa): 25 µg/mL (≈ 38 µM); MIC Pseudomonas aeruginosa S-1 (Pseudomonas aeruginosa): 50 µg/mL (≈ 76 µM); MIC Proteus morganii (Proteus morganii): 0.78 µg/mL (≈ 1.19 µM); MIC Staphylococcus aureus F-1 (Staphylococcus aureus): 1.56 µg/mL (≈ 2.37 µM); MIC Staphylococcus aureus MS 8588 (Staphylococcus aureus): 1.56 µg/mL (≈ 2.37 µM); MIC Staphylococcus aureus MS 8596 (Staphylococcus aureus): 3.13 µg/mL (≈ 4.76 µM); MIC Staphylococcus aureus MS 8619 (Staphylococcus aureus): 1.56 µg/mL (≈ 2.37 µM); MIC Staphylococcus aureus MS 8684 (Staphylococcus aureus): 1.56 µg/mL (≈ 2.37 µM); MIC Proteus vulgaris (Proteus vulgaris): 0.78 µg/mL (≈ 1.19 µM) |
| CCCCCCCCN1CCN(C(=O)N[C@@H](C(=O)NC2C(=O)N3C(C(=O)O)=C(CSc4nnnn4C)CSC23)c2ccccc2)C(=O)C1=O (single isomer, unassigned) [Compound No. 74] | 0.03 | 5 | 0.2 (≈ 0.28 µM) | 1.57 (≈ 2.2 µM) | 1.57 (≈ 2.2 µM) | 12.5 (≈ 17.5 µM) | 0.79 (≈ 1.11 µM) | 0.39 (≈ 0.546 µM) | 0.78 (≈ 1.09 µM) | 1.56 (≈ 2.19 µM) | 1.56 (≈ 2.19 µM) | 3.13 (≈ 4.38 µM) | 1.56 (≈ 2.19 µM) | 6.25 (≈ 8.76 µM) | 1.56 (≈ 2.19 µM) | 1.56 (≈ 2.19 µM) | 25 (≈ 35 µM) | 50 (≈ 70 µM) | 25 (≈ 35 µM) | 50 (≈ 70 µM) | MIC Pseudomonas aeruginosa GN 376 (Pseudomonas aeruginosa): 50 µg/mL (≈ 70 µM); MIC Pseudomonas aeruginosa GN 1035 (Pseudomonas aeruginosa): 25 µg/mL (≈ 35 µM); MIC Pseudomonas aeruginosa GN 1091 (Pseudomonas aeruginosa): 25 µg/mL (≈ 35 µM); MIC Pseudomonas aeruginosa GN 2565 (Pseudomonas aeruginosa): 50 µg/mL (≈ 70 µM); MIC Pseudomonas aeruginosa S-1 (Pseudomonas aeruginosa): 50 µg/mL (≈ 70 µM); MIC Proteus morganii (Proteus morganii): 0.78 µg/mL (≈ 1.09 µM); MIC Staphylococcus aureus F-1 (Staphylococcus aureus): 0.78 µg/mL (≈ 1.09 µM); MIC Staphylococcus aureus MS 8588 (Staphylococcus aureus): 0.78 µg/mL (≈ 1.09 µM); MIC Staphylococcus aureus MS 8596 (Staphylococcus aureus): 0.78 µg/mL (≈ 1.09 µM); MIC Staphylococcus aureus MS 8619 (Staphylococcus aureus): 0.78 µg/mL (≈ 1.09 µM); MIC Staphylococcus aureus MS 8684 (Staphylococcus aureus): 0.78 µg/mL (≈ 1.09 µM); MIC Proteus vulgaris (Proteus vulgaris): 0.78 µg/mL (≈ 1.09 µM) |
